From paper PMC9571594, “Development of Semisynthetic Apoptosis-Inducing Agents Based on Natural Phenolic Acids Scaffold: Design, Synthesis and In-Vitro Biological Evaluation” (Molecules, 2022)
Several values for one entry are separate records, joined by “and”; a condition that tells them apart may be missing. Identical values can stand only once. Like-named read-outs stand apart in the source and are kept apart here.

Key:
Format in all cases: cell-based
Caco-2 cells [1] = test: Annexin V-FITC/PI apoptosis assay by flow cytometry; parameters: key: % of cells; settings: annexin-V FITC/PI staining, 24h
Procedure: (§1) In order to determine the percentage of viable, apoptotic and necrotic cells after treatment with our compounds, double-staining with fluorescein isothiocyanate (FITC) and PI was performed. Annexin V-FITC Apoptosis Detection Kit (BioVision, CA, USA) was used. Briefly, cultured Caco-2 were treated with the tested compounds or DMSO for 24h. Cells were then collected by centrifugation at 2000 rpm for 5 min, and the pellet was washed with PBS then centrifuged again at 2000 rpm for 5 min then resuspended in 500μL of the kit’s binding buffer before adding the Annexin V-FITC and PI. The cells were then incubated at room temperature in the dark for 5 min. Annexin V-FITC binding was measured using FACS Calibur flow cytometer (BD biosciences, USA) (Ex = 488 nm, Em = 533 nm, FL1 filter for annexin and FL2 filter for PI).

Caspase 3 = test: RT-qPCR gene expression of caspase 3
Procedure: (§2) Gene expression was chosen over Western blotting for more accurate quantification and thus comparison. The gene expression of the p53, caspase 3 and Bax genes was measured.
(§3) The treated cells were harvested and the total RNA was extracted using RNeasy Mini Kit (Qiagen) according to the manufacturer’s instruction. The primers of the required genes (Table 6) were used for SYBR Green qRT-PCR using a one-step RT-PCR kit with SYBR Green (Bio-Rad). qRT-PCR was performed on Rotor Gene Q (Qiagen). […] Rotor-Gene 6000 Series Software was used for data analysis. and their HGNC ID was added (Table 6) […]
(§4) Researcher : DR Moh.Abdelbasir email: m_a_baser@yahoo.com mob.01 […]
(§5) Reader : Rotorgene RT- PCR system
(§6) Kit used : Qiagen RNA extraction/BioRad syber green PCR MMX
(§7) Assay samples :Cell culture Lysate
(§8) Cpd. No. Cpd. No. Cpd. No. Cpd. No.
(§9) Run On Software Version Rotor-Gene 1.7.87
(§10) This report generated by Rotor-Gene 6000 Series Software 1.7 (Build 87) Copyright 2000-2006 Corbett Research, a Division of Corbett Life Science. All rights reserved. […]

p53 = test: RT-qPCR gene expression of p53
Procedure: as §2, §3, §4, §5, §6, §7, §8, §9, §10

MMP-9 = test: RT-qPCR gene expression of MMP-9; settings: for MMP9 Fold Change: Caco2, relative to cont.Caco2 = 1
Procedure: (§11) The treated cells were harvested and the total RNA was extracted using RNeasy Mini Kit (Qiagen) according to the manufacturer’s instruction. The primers of the required genes (Table 6) were used for SYBR Green qRT-PCR using a one-step RT-PCR kit with SYBR Green (Bio-Rad). qRT-PCR was performed on Rotor Gene Q (Qiagen). […] Rotor-Gene 6000 Series Software was used for data analysis. and their HGNC ID was added (Table 6)
(§12) Researcher : Dr/Noura email: mob.
as §5, §6, §7, §8

MMP-2 = test: RT-qPCR gene expression of MMP-2; settings: for MMP2 Fold Change: Caco2, relative to cont.Caco2 = 1
Procedure: as §11, §12, §5, §6, §7, §8

Caco-2 cells [2] = test: Cell-cycle analysis by flow cytometry; settings: for %G0–G1 / %G2/M / %S / %Pre-G1: Caco-2 cells; for %G0–G1 / %G2/M / %S: cell-cycle distribution after treatment; for %Pre-G1: Pre-G1 = apoptotic population; for apoptotic population compared to the parent compound: Caco-2, in words, versus parent 1 or 2
Procedure: The potential candidates with anti-tumor effect on the Caco-2 cell line along with a high SI were chosen for cell-cycle analysis. The cell-cycle distribution and cell death were analyzed using Annexin V-FITC/PI staining and flow cytometry (Table 4, Figure 4).
as §1, with “Annexin V-FITC binding was measured using FACS Calibur flow cytometer (BD biosciences, USA) (Ex = 488 nm, Em = 533 nm, FL1 filter for annexin and FL2 filter for PI).” left out
Assay : Cell Cycle Analysis
Kit used : ab139418_Propidium Iodide Flow Cytometry Kit/BD
Assay samples :Cell culture
as §8

Bax = test: RT-qPCR gene expression of Bax
Procedure: as §2, §3, §4, §5, §6, §7, §8, §9, §10

Caco-2 cancer cell line = test: MTT cell viability assay, Caco-2; settings: MTT, 48 h, average of triplicates, semi-synthesized compounds (Table 3), read-out: IC50 (μM) on Caco-2 cancer cell line
Procedure: MCF-7 cells (Human breast adenocarcinoma), HepG2 (human hepatocellular carcinoma), A549 (human lung adenocarcinoma), Caco-2 (colon carcinoma), PANC-1 (human pancreatic cancer), and Vero cells (derived from normal kidney cells) were supplied by (Holding Company for Biological Products and Vaccines VACSERA; Giza, Egypt). The cells were cultured in PRMI 1640 medium (Lonza, Switzerland) supplemented with 10% fetal bovine serum (Gibco), 1% penicillin and 1% streptomycin (Sigma Aldrich, Saint Louis, MO, USA) at 37 °C under an atmosphere of 5% CO2 and 95% air.
The effect of parent compounds and their derivatives were assessed by (3-(4,5-dimethylthiazol-2-yl)-2,5diphenyl-tetrazolium bromide) MTT assay. […] After a merged sheet of cells developed, the growth media was decanted from the 96-well microtiter and refilled with different concentrations of compounds (µg/mL), and the plate was incubated at 37 °C for 48 h to minimize exposure to the dissolving agent (Supporting Information).
MTT solution (BIO BASIC CANADA INC) was prepared [5 mg/mL in phosphate buffered saline (PBS)], added to each well and incubated for 4 h, then after removing the media, 200 μL of DMSO was added to each well to solubilize the formazan crystals and the optical density of the formazan product was measured at 560 nm using microplate reader (mindray, MR-96A). The results were calculated as the mean of the three independent experiments. […]
Determination of sample cytotoxicity on cells (MTT protocol) […]
well) and incubated at 37°C for 24 hours to develop a complete monolayer sheet.
2- Growth medium was decanted from 96 well micro titer plates after confluent sheet of cells were formed, cell monolayer was washed twice with wash media.
3- two-fold dilutions of tested sample was made in RPMI medium with 2% serum […]
4- 0.1 ml of each dilution was tested in different wells leaving 3 wells as control, receiving only maintenance medium.
5- Plate was incubated at 37°C and examined. Cells were checked for any physical signs of toxicity, e.g. partial or complete loss of the monolayer, rounding, shrinkage, […]
6- MTT solution was prepared (5mg/ml in PBS) (BIO BASIC CANADA INC).
8- 20ul MTT solution were added to each well. Place on a shaking table, 150rpm for 5 minutes, to thoroughly mix the MTT into the media.
10) Dump off the media. (dry plate on paper towels to remove residue if necessary. […] 9 ش - ايلعلا هبضهلا - مطقملا / ىسيئرلا لمعملا […]

Bcl-2 = test: RT-qPCR gene expression of Bcl-2; settings: Caco2, β-actin as control gene, relative to cont.Caco2 = 1; listed as FA9
Procedure: as §3, §4, §5, §6, §7, §8, §9, §10

[3] = Caco2, β-actin as control gene, relative to cont.Caco2 = 1, listed as FA9

| Compound | Apoptosis Total (Caco-2 cells [1]) | Early Apoptosis (Caco-2 cells [1]) | Necrosis (Caco-2 cells [1]) | MMP9 Fold Change (MMP-9) [Fold Change] | MMP2 Fold Change (MMP-2) [Fold Change] | %G0–G1 (Caco-2 cells [2]) [%] | %G2/M (Caco-2 cells [2]) [%] | %S (Caco-2 cells [2]) [%] | %Pre-G1 (Caco-2 cells [2]) | Late Apoptosis (Caco-2 cells [1]) | apoptotic population compared to the parent compound (Caco-2 cells [2]) | IC50 (Caco-2 cancer cell line) [µM] | also measured |
| --- | --- | --- | --- | --- | --- | --- | --- | --- | --- | --- | --- | --- | --- |
| COc1cc(/C=C/C(=O)NC2CCCCC2)ccc1O [Compound 15, (E)-N-Cyclohexyl-3-(4-hydroxy-3-methoxyphenyl)acrylamide] | 25.17 | 5.79 | 2.81 | 0.37±0.007 | 0.59±0.016 | 26.59 ± 2.67 | 50.83 ± 3.49 | 22.58 ± 2.91 | 25.17% and 25.17 ± 3.29% | – | – | – | overexpression of caspase 3 gene (Caspase 3; Figures 6 and 7): 15 fold; overexpression of p53 gene (p53; Figures 6 and 7): 10 fold; %G0–G1 (Caco-2 cells [2]; listed as FA5): 26.59%; %G2/M (Caco-2 cells [2]; listed as FA5): 50.83%; %S (Caco-2 cells [2]; listed as FA5): 22.58%; overexpression of Bax gene (Bax; Figures 6 and 7): 15 fold; IC50 (Caco-2 cancer cell line; Homo sapiens, Caco-2): 20 µM |
| COc1ccc(/C=C/C(=O)NCc2ccccc2)cc1O [Compound 18, (E)-N-Benzyl-3-(3-hydroxy-4-methoxyphenyl) acrylamide] | 12.92 | 3.88 | 1.73 | 0.52±0.010 | 0.42±0.011 | 33.26 ± 4.29 | 37.62 ± 2.47 | 29.12 ± 4.05 | 12.92 ± 2.16% | 7.31 | non-significant decrease | 50 | Casp3 gene expression Fold Change (Caspase 3; [3]): 6.02±0.33 Fold Change and 6.029 Fold Change; P53 gene expression Fold Change (p53; [3]): 5.87±0.27 Fold Change and 5.878 Fold Change; %G0–G1 (Caco-2 cells [2]; listed as FA9): 33.26%; %G2/M (Caco-2 cells [2]; listed as FA9): 37.62%; %S (Caco-2 cells [2]; listed as FA9): 29.12%; %Pre-G1 (Caco-2 cells [2]; listed as FA9): 12.92%; Bax gene expression Fold Change (Bax; [3]): 6.06±0.41 Fold Change and 6.068 Fold Change; Bcl2 gene expression Fold Change (Bcl-2): 0.58±0.03 Fold Change and 0.5856 Fold Change |
| (E)-3-(3-Hydroxy-4-methoxyphenyl)-N-(m-tolyl)acrylamide [Compound 17] | 12.11 | 4.25 | 1.61 | – | – | – | – | – | 12.11 ± 0.97% | 6.25 | non-significant decrease | 20 | expression of MMP9 (in words) (MMP-9; Figures 8 and 9): greatest inhibition; expression of MMP2 (in words) (MMP-2; Figures 8 and 9): greatest inhibition; %Pre-G1 (Caco-2 cells [2]; listed as FA8): 12.11% |
